Test system: emesis in the dog
Assay: Emesis in the Dog (apomorphine-induced retching and vomiting)
Format: in vivo
Settings: adult female dogs; test compound i.v. at the dose of 1.0 mg/kg; 5 min later subcutaneous apomorphine (0.1 mg/0.5 ml/kg); observed for 60 min
Description: Individually housed adult female dogs (8 to 15 kg) were given an i.v. injection of a solution containing a test compound. 5 Min later the emetic responses (retching and vomiting) were induced by administration of subcutaneous apomorphine (0.1 mg/0.5 ml/kg) and observed for the next 60 min. The timing and number of retches and vomits observed were recorded for each animal. An individual animal was tested with at least 10 days between experiments.
With `COc1nc(OC)c(CN2C[C@@H]3CN(C(=O)CO)CCN3[C@H](C(c3ccccc3)c3ccccc3)C2)c(OC)n1.Cl.Cl` [Example 1, 2-[(6R, 9aR)-6-benzhydryl-8-[(2,4,6-trimethoxy-5-pyrimidinyl)methyl]octahydro-2H-pyrazino[1,2-a]pyrazin-2-yl]-2-oxoethanol dihydrochloride] the “inhibition rate of emesis in the dog” value was 100%.

Test system: not given
Assay: not given
Settings: not given
In the case of `COc1nc(OC)c(CN2C[C@@H]3CN(C(=O)CO)CCN3[C@H](C(c3ccccc3)c3ccccc3)C2)c(OCC(F)F)n1.Cl.Cl`, the melting point was 143 to 146 °C. In the case of `COc1nc(Cl)c(CN2C[C@@H]3CN(C(=O)CO)CCN3[C@H](C(c3ccccc3)c3ccccc3)C2)c(OC)n1.Cl.Cl`, the melting point was 98 to 101 °C (dec.). With `CCOc1nc(OC)nc(OC)c1CN1C[C@@H]2CN(C(=O)CO)CCN2[C@H](C(c2ccccc2)c2ccccc2)C1.Cl.Cl` the melting point was 150 to 152 °C (dec.). In the case of `COc1nc(Cl)nc(OC)c1CN1C[C@@H]2CN(C(=O)CO)CCN2[C@H](C(c2ccccc2)c2ccccc2)C1.Cl.Cl`, the melting point was 150 to 155 °C (dec.). In the case of `COc1nc(OC)c(CN2C[C@@H]3CN(C(=O)c4cccnc4)CCN3[C@H](C(c3ccccc3)c3ccccc3)C2)c(OC(C)C)n1.Cl.Cl.Cl`, the melting point was 143 to 147 °C. Work on `COc1nc(C)nc(OC)c1CN1C[C@@H]2CN(C(=O)CO)CCN2[C@H](C(c2ccccc2)c2ccccc2)C1.Cl.Cl` yielded a melting point of 129 to 132 °C. With `COc1nc(OC)c(CN2C[C@@H]3CN(C(=O)CO)CCN3[C@H](C(c3ccccc3)c3ccccc3)C2)c(OC)n1.Cl.Cl` [Example 1, 2-[(6R, 9aR)-6-benzhydryl-8-[(2,4,6-trimethoxy-5-pyrimidinyl)methyl]octahydro-2H-pyrazino[1,2-a]pyrazin-2-yl]-2-oxoethanol dihydrochloride] the melting point was 155 to 158 °C (dec.). For `COc1nc(C)c(CN2C[C@@H]3CN(C(=O)CO)CCN3[C@H](C(c3ccccc3)c3ccccc3)C2)c(OC)n1.Cl.Cl`, the melting point was 174 to 177 °C. Compound `COc1nc(OC)c(CN2C[C@@H]3CN(C(=O)N4CCOCC4)CCN3[C@H](C(c3ccccc3)c3ccccc3)C2)c(OC)n1.Cl.Cl` has a melting point of 139 to 143 °C. In the case of `COc1nc(OC)c(CN2C[C@@H]3CN(C(=O)CO)CCN3[C@H](C(c3ccccc3)c3ccccc3)C2)c(OC2CCC2)n1.Cl.Cl`, the melting point was 141 to 145 °C. In the case of `COc1nc(OC)c(CN2C[C@@H]3CN(C(=O)CO)CCN3[C@H](C(c3ccccc3)c3ccccc3)C2)c(OC(C)C)n1.Cl.Cl`, the melting point was 145 to 148 °C (dec.).

Source: patent US20050171350A1, “Benzhydryl derivatives” (Fujisawa Pharamaceutical Co., Ltd., priority 2001, published 2005)
